Experimental data published in patent US20160175306A1, “COMBINATION OF A IMIDAZOPYRIDAZINE DERIVATIVE AND A MITOTIC AGENT FOR THE TREATMENT OF CANCER” (BAYER PHARMA AKTIENGESELLSCHAFT, priority 2013, published 2016).
Read-outs that look alike come from different tables or passages of the source. Marks after values point to notes of the source that are not given here.

Experiments:
[1] = system: A2780cis human ovarian cancer xenograft model
Procedure: In Vivo Anti-Tumor Efficacy of Mps-1 Kinase Inhibitors of the Present Invention in Combination with Paclitaxel in A2780cis Human Ovarian Cancer Model in Nude Mice
The effect of combination treatment of an Mps-1 kinase inhibitor of the present invention and paclitaxel was studied in the adaptive cisplatin-resistant and paclitaxel intrinsically resistant A2780cis xenograft model. […] Animal body weight and tumor size were determined three times weekly. Treatment for all groups started at a tumor size of 29 mm^2, at day 6 after tumor cell inoculation. […] At the end of the study after one final treatment plasma and tumors were sampled for PK analysis and final tumor weight was determined.

[2] = system: NCI-H1299 human NSCLC xenograft model; settings: for T/C area: relative tumor area at control dosing stop
Description: In Vivo Anti-Tumor Efficacy of Mps-1 Kinase Inhibitors of the Present Invention in Combination with Paclitaxel in NCI-H1299 Human NSCLC Model in Nude Mice
The effect of combination treatment of an Mps-1 kinase inhibitor of the present invention and paclitaxel was studied in the NCI-H1299 taxane intrinsically resistant human lung carcinoma (NSCLC) xenograft model in nude mice. […] Substances were formulated in optimal vehicles to achieve solutions. Animal body weight and tumor size were determined three times weekly. Treatment for all groups started at a tumor size of 30 mm^2, at day 8 after tumor cell inoculation. […] At the end of the study after one final treatment plasma and tumors were sampled for PK analysis and final tumor weight was determined.

rat hepatocytes = experiment: In vitro metabolic stability in rat hepatocytes; format: in vitro ADME; settings: 1 μM test compound, calculated from half-life
Procedure: Investigation of In Vitro Metabolic Stability in Rat Hepatocytes (Including Calculation of Hepatic In Vivo Blood Clearance (CL))
Hepatocytes from Han Wistar rats were isolated via a 2-step perfusion method. After perfusion, the liver was carefully removed from the rat: the liver capsule was opened and the hepatocytes were gently shaken out into a Petri dish with ice-cold WME. The resulting cell suspension was filtered through sterile gaze in 50 ml falcon tubes and centrifuged at 50×g for 3 min at room temperature.
The cell pellet was resuspended in 30 ml WME and centrifuged through a Percoll® gradient for 2 times at 100×g. The hepatocytes were washed again with Williams' medium E (WME) and resuspended in medium containing 5% FCS. Cell viability was determined by trypan blue exclusion.
For the metabolic stability assay liver cells were distributed in WME containing 5% FCS to glass vials at a density of 1.0×10^6 vital cells/m. The test compound was added to a final concentration of 1 μM. During incubation, the hepatocyte suspensions were continuously shaken and aliquots were taken at 2, 8, 16, 30, 45 and 90 min, to which equal volumes of cold methanol were immediately added. Samples were frozen at −20° C. over night, after subsequently centrifuged for 15 minutes at 3000 rpm and the supernatant was analyzed with an Agilent 1200 HPLC-system with LCMS/MS detection.
The half-life of a test compound was determined from the concentration-time plot. From the half-life the intrinsic clearances were calculated. Together with the additional parameters liver blood flow, amount of liver cells in vivo and in vitro. The hepatic in vivo blood clearance (CL) and the maximal oral bioavailability (Fmax) was calculated. The following parameter values were used: Liver blood flow—4.2 L/h/kg rat; specific liver weight—32 g/kg rat body weight; liver cells in vivo—1.1×10^8 cells/g liver, liver cells in vitro—0.5×10^6/ml.

human kinase Mps-1 = biological target: T1, human kinase Mps-1 (Homo sapiens, UniProt P33981); experiment: Mps-1 Kinase Assay (TR-FRET); format: biochemical; settings: 10 μM ATP
T1 construct: N-terminally GST-tagged human full length recombinant Mps-1 kinase; purchased Invitrogen, Karslruhe, Germany PV4071
T1 sequence (P33981 1-857): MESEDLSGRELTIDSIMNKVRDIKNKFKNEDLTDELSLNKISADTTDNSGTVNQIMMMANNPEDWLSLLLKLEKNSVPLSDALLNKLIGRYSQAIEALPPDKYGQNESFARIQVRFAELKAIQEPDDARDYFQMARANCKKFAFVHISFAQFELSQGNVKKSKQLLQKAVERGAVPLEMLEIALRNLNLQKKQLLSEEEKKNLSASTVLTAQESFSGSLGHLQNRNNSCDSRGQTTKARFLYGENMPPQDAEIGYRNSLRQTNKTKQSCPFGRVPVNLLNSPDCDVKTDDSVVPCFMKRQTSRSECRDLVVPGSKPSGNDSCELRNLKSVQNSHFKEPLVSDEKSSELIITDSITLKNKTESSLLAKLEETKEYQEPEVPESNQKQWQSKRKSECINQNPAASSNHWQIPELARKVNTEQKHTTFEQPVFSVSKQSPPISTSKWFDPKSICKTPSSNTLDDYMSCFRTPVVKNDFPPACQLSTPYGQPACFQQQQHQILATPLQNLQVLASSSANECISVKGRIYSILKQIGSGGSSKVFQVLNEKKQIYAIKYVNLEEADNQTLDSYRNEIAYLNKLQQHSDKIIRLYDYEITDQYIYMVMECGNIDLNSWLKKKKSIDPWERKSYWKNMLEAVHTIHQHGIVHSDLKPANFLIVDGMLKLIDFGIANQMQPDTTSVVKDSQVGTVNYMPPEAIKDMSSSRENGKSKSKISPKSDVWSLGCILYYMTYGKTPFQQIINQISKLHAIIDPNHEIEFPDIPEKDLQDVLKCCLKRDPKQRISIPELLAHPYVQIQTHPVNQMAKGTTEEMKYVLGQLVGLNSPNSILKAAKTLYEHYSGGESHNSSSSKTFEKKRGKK
Procedure: The human kinase Mps-1 phosphorylates a biotinylated substrate peptide. Detection of the phosphorylated product is achieved by time-resolved fluorescence resonance energy transfer (TR-FRET) from Europium-labelled anti-phospho-Serine/Threonine antibody as donor to streptavidin Labelled with cross-linked allophycocyanin (SA-XLent) as acceptor. Compounds are tested for their inhibition of the kinase activity.
N-terminally GST-tagged human full length recombinant Mps-1 kinase (purchased from Invitrogen, Karslruhe, Germany, cat. no PV4071) was used. As substrate for the kinase reaction a biotinylated peptide of the amino-acid sequence […] (C-terminus in amide form, purchased from Biosynthan GmbH, Berlin) was used.
The concentration of Mps-1 in the assay was adjusted to the activity of the enzyme lot and was chosen appropriate to have the assay in the linear range, typical enzyme concentrations were in the range of about 1 nM (final conc. in the 5 μl assay volume).
The resulting mixture was incubated 1 h at 22° C. to allow the binding of the phosphorylated peptide to the anti-phospho(Ser/Thr)-Europium-antibody. Subsequently the amount of phosphorylated substrate was evaluated by measurement of the resonance energy transfer from the Europium-labelled anti-phospho(Ser/Thr) antibody to the Streptavidin-XLent.

[3] = Paclitaxel 20/15 (d19) mg/kg QD 2on/6off i.v.

| SMILES | Fmax (maximal oral bioavailability) (rat hepatocytes) | IC50 (human kinase Mps-1) | other results |
| --- | --- | --- | --- |
| CC(=O)O[C@H]1C(=O)[C@@]2(C)[C@H]([C@H](OC(=O)c3ccccc3)[C@]3(O)C[C@H](OC(=O)[C@H](O)[C@@H](NC(=O)c4ccccc4)c4ccccc4)C(C)=C1C3(C)C)[C@]1(OC(C)=O)CO[C@@H]1C[C@@H]2O [Paclitaxel, (2α,4α,5β,7β,10β,13α)-4,10-bis(acetyloxy)-13-{[(2R,3S)-3-(benzoylamino)-2-hydroxy-3-phenylpropanoyl]oxy}-1,7-dihydroxy-9-oxo-5,20-epoxytax-11-en-2-yl benzoate, reference compound] |  |  | Fatal Tox [1, 3]: 0/10; T/C area ([1]; Paclitaxel 20/15 (d19) mg/kg QD 2on/6off i.v., relative tumor area at control dosing stop): 0.06^#; Max. Body weight loss ([1]; mouse, in vivo, iv): −0.7%; Fatal Tox [2, 3]: 0/10; T/C area [2, 3]: 0.13^#; T/C area ([2]; Paclitaxel 20/15 (d19) mg/kg QD 2on/6off i.v., listed as paclitaxel): 0.13; Max. Body weight loss ([2]; mouse, in vivo, iv): −1.9% |
| COc1cccc(C(=O)c2cc(NCCC(F)(F)F)c3ncc(-c4ccc(C(=O)NC5CC5)c(C)c4)n3n2)c1 [Compound A7, N-Cyclopropyl-4-{6-(3-methoxybenzoyl)-8-[(3,3,3-trifluoropropyl)amino]imidazo[1,2-b]pyridazin-3-yl}-2-methylbenzamide] | 26% | 500 pM |  |
| Cc1cc(-c2cnc3c(NCCC(F)(F)F)cc(C(O)c4cc(F)ccc4F)nn23)ccc1C(=O)NC1CC1 (racemic) [Compound A11, (RS)—N-Cyclopropyl-4-{6-[(2,5-difluorophenyl)(hydroxy)methyl]-8-[(3,3,3-trifluoropropyl)amino]imidazo[1,2-b]pyridazin-3-yl}-2-methylbenzamide] | 45% | 300 pM |  |
| COc1ccc(C(=O)c2cc(NCCC(F)(F)F)c3ncc(-c4ccc(C(=O)NC5CC5)c(C)c4)n3n2)cc1 [Compound A9, N-Cyclopropyl-4-{6-(4-methoxybenzoyl)-8-[(3,3,3-trifluoropropyl)amino]imidazo[1,2-b]pyridazin-3-yl}-2-methylbenzamide] | 71% | 1200 pM |  |
| Cc1cc(-c2cnc3c(NCCC(F)(F)F)cc(C(F)c4cccc(F)c4)nn23)ccc1C(=O)NC1CC1 (racemic) [Compound A5, (RS)—N-Cyclopropyl-4-{6-[fluoro(3-fluorophenyl)methyl]-8-[(3,3,3-trifluoropropyl)amino]imidazo[1,2-b]pyridazin-3-yl}-2-methylbenzamide] | 49% | 700 pM |  |
| Cc1cc(-c2cnc3c(NCCC(F)(F)F)cc(C(=O)c4cc(F)ccc4F)nn23)ccc1C(=O)NC1CC1 [Compound A12, N-Cyclopropyl-4-{6-(2,5-difluorobenzoyl)-8-[(3,3,3-trifluoropropyl)amino]imidazo[1,2-b]pyridazin-3-yl}-2-methylbenzamide] | 67% | 600 pM |  |
| C=C(c1ccc(OC)cc1)c1cc(NCCC(F)(F)F)c2ncc(-c3ccc(C(=O)NC4CC4)c(C)c3)n2n1 [Compound A10, N-Cyclopropyl-4-{6-[1-(4-methoxyphenyl)vinyl]-8-[(3,3,3-trifluoropropyl)amino]imidazo[1,2-b]pyridazin-3-yl}-2-methylbenzamide] | 48% | 500 pM |  |
| Cc1cc(-c2cnc3c(NCCC(F)(F)F)cc(C(O)c4cccc(F)c4O)nn23)ccc1C(=O)NC1CC1 (racemic) [Compound A3, (RS)—N-Cyclopropyl-4-{6-[(3-fluoro-2-hydroxyphenyl)(hydroxy)methyl]-8-[(3,3,3-trifluoropropyl)amino]imidazo[1,2-b]pyridazin-3-yl}-2-methylbenzamide] | 18% | 200 pM |  |
| C=C(c1cc(NCCC(F)(F)F)c2ncc(-c3ccc(C(=O)NC4CC4)c(C)c3)n2n1)c1cccc(F)c1F [Compound A15, N-Cyclopropyl-4-{6-[1-(2,3-difluorophenyl)vinyl]-8-[(3,3,3-trifluoropropyl)amino]imidazo[1,2-b]pyridazin-3-yl}-2-methylbenzamide] | 53% | 400 pM |  |
| C=C(c1cccc(OC)c1)c1cc(NCCC(F)(F)F)c2ncc(-c3ccc(C(=O)NC4CC4)c(C)c3)n2n1 [Compound A8, N-Cyclopropyl-4-{6-[1-(3-methoxyphenyl)vinyl]-8-[(3,3,3-trifluoropropyl)amino]imidazo[1,2-b]pyridazin-3-yl}-2-methylbenzamide] | 57% | 800 pM |  |
| Cc1cc(-c2cnc3c(NCCC(F)(F)F)cc(C(=O)c4cccc(F)c4F)nn23)ccc1C(=O)NC1CC1 [Compound A14, N-Cyclopropyl-4-{6-(2,3-difluorobenzoyl)-8-[(3,3,3-trifluoropropyl)amino]imidazo[1,2-b]pyridazin-3-yl}-2-methylbenzamide] | 51% | 600 pM |  |
| Cc1cc(-c2cnc3c(NCCC(F)(F)F)cc(C(F)(F)c4cccc(F)c4F)nn23)ccc1C(=O)NC1CC1 [Compound A18, N-Cyclopropyl-4-{6-[(2,3-difluorophenyl)(difluoro)methyl]-8-[(3,3,3-trifluoropropyl)amino]imidazo[1,2-b]pyridazin-3-yl}-2-methylbenzamide] | 76% | 1500 pM |  |
| C=C(c1cccc(F)c1)c1cc(NCCC(F)(F)F)c2ncc(-c3ccc(C(=O)NC4CC4)c(C)c3)n2n1 [Compound A24, N-cyclopropyl-4-{6-[1-(3-fluorophenyl)ethenyl]-8-[(3,3,3-trifluoropropyl)amino]imidazo[1,2-b]pyridazin-3-yl}-2-methylbenzamide] | 48% | 300 pM |  |
